Results as given in article PMC11859928, “Design, Synthesis, and Antiproliferative Activity of Novel Indole/1,2,4-Triazole Hybrids as Tubulin Polymerization Inhibitors” (Pharmaceuticals, 2025).
Like-named read-outs stand apart in the source and are kept apart here.

Assays:
NCI-H522 = assay: NCI five-dose assay; type: cell-based, human; details: NCI-H522, Non-small cell lung cancer
HL-60(TB) = assay: NCI five-dose assay; type: cell-based, human; details: Leukemia
CNS cancer subpanel = assay: NCI five-dose assay, subpanel mean; type: cell-based, human
HCT-116 = assay: NCI five-dose assay; type: cell-based, human; details: HCT-116, Colon cancer
NCI-H460 = assay: NCI five-dose assay; type: cell-based, human; details: NCI-H460, Non-small cell lung cancer
SK-OV-3 = assay: NCI five-dose assay; type: cell-based, human; details: SK-OV-3, Ovarian cancer
LOX IMVI = assay: NCI five-dose assay; type: cell-based, human; details: Melanoma
T-47D = assay: NCI five-dose assay; type: cell-based, human; details: Breast cancer
PC-3 = assay: NCI five-dose assay; type: cell-based, human; details: PC-3, Prostate cancer
tubulin = molecular target: T1, tubulin (Sus scrofa, UniProt P02550+P02554); assay: Tubulin polymerization inhibitory assay; type: biochemical
T1 construct: purchased Cytoskeleton Inc., Denver, CO, USA
T1 sequence (P02554 whole entry): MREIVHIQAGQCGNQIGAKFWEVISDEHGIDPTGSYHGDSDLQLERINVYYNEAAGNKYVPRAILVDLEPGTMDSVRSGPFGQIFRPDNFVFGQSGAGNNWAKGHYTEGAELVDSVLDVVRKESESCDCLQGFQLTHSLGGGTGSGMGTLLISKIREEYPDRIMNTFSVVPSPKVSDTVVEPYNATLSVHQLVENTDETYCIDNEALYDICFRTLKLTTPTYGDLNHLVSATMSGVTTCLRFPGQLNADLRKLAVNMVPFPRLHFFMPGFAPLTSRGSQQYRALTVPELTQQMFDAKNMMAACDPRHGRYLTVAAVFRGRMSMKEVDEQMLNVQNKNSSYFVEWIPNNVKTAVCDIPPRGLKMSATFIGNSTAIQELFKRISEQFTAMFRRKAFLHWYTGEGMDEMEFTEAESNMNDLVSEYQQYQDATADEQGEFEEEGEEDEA
T1 sequence (P02550 whole entry): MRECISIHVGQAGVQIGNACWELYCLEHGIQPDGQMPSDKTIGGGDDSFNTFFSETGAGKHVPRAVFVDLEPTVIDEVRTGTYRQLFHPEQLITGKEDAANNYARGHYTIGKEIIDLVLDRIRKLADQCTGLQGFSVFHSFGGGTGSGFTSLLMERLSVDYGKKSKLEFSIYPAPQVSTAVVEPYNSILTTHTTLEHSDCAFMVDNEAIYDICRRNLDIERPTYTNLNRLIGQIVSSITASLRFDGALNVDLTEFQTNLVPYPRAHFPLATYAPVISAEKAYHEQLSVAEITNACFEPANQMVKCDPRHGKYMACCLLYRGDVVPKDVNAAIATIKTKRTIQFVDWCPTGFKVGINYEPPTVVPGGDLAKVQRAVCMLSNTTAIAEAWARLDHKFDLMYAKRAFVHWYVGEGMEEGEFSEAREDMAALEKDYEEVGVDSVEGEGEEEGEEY
Description: The substances’ effects on tubulin polymerization were examined using the Tubulin Polymerization Assay Kit (Cytoskeleton Inc., Denver, CO, USA) according to the supplier’s instructions, with details described in Appendix A..
The activity of compounds on tubulin polymerization was investigated using the Tubulin Polymerization Assay Kit (Cytoskeleton Inc., Denver, CO, USA), which works via fluorescent reporter enhancement. […] Docetaxel and vincristine (Apoteket AB, Stockholm, Sweden) served as positive stabilizing and destabilizing controls. Both were used at a 3 µM concentration in PBS.

UACC-257 = assay: NCI five-dose assay; type: cell-based, human; details: Homo sapiens, UACC-257, Melanoma
UACC-62 = assay: NCI five-dose assay; type: cell-based, human; details: UACC-62, Melanoma
BT-549 = assay: NCI five-dose assay; type: cell-based, human; details: BT-549, Breast cancer
HT29 = assay: NCI five-dose assay; type: cell-based, human; details: HT29, Colon cancer
MCF7 = assay: NCI five-dose assay; type: cell-based, human; details: MCF7, Breast cancer
NCI/ADR-RES = assay: NCI five-dose assay; type: cell-based, human; details: Ovarian cancer
UO-31 = assay: NCI five-dose assay; type: cell-based, human; details: UO-31, Renal cancer
SN12C = assay: NCI five-dose assay; type: cell-based, human; details: Renal cancer
MDA/MB-231-ATCC = assay: NCI five-dose assay; type: cell-based, human; details: Breast cancer
[1] = system: Non-small cell lung cancer subpanel; assay: NCI five-dose assay, subpanel mean; type: cell-based, human
HCT-15 = assay: NCI five-dose assay; type: cell-based, human; details: HCT-15, Colon cancer
SNB-19 = assay: NCI five-dose assay; type: cell-based, human; details: SNB-19, CNS cancer
786-0 = assay: NCI five-dose assay; type: cell-based, human; details: 786-0, Renal cancer
HCC-2998 = assay: NCI five-dose assay; type: cell-based, human; details: HCC-2998, Colon cancer
MDA-MB-468 = assay: NCI five-dose assay; type: cell-based, human; details: MDA-MB-468, Breast cancer
[2] = Homo sapiens, 48 h, read-out: LC50 (the source's name)
[3] = Homo sapiens, read-out: GI50 Conc. per Cell Lines

Q: Which CC50 (NCI-H522; [2]) does the source give for Cc1ccc(/C(CSc2nnc(-c3c[nH]c4ccccc34)n2-c2ccccc2)=N/O)cc1 [Compound 7h, (Z)-2-((5-(1H-Indol-3-yl)-4-phenyl-4H-1,2,4-triazol-3-yl)thio)-1-(p-tolyl)ethanone Oxime] here?
A: > 100 µM

Q: And the GI50 (NCI-H522; [3])?
A: 2.24 µM

Q: What about the “TGI Conc. per Cell Lines” value (NCI-H522) of the same compound?
A: 6.04 µM

Q: And the GI50 (HL-60(TB); [3])?
A: 1.92 µM

Q: And the “TGI Conc. per Cell Lines” value (HL-60(TB))?
A: 3.96 µM

Q: What about the “GI50 Selectivity Ratio (MID a/MID b)” value (CNS cancer subpanel; CNS cancer subpanel) of the same compound?
A: 1.04

Q: What about the GI50 (CNS cancer subpanel; Homo sapiens, average sensitivity of all cell lines of the CNS cancer subpanel, read-out: GI50 Subpanel MID b) of the same compound?
A: 2.86 µM

Q: What about the “TGI Conc. per Cell Lines” value (HCT-116) of the same compound?
A: 3.65 µM

Q: What about the GI50 (HCT-116; [3]) of the same compound?
A: 1.87 µM

Q: What about the CC50 (NCI-H460; [2]) of the same compound?
A: 6.55 µM

Q: And the GI50 (NCI-H460; [3])?
A: 3.18 µM

Q: What about the “TGI Conc. per Cell Lines” value (NCI-H460) of the same compound?
A: 12.20 µM

Q: What about the CC50 (SK-OV-3; [2]) of the same compound?
A: 7.89 µM

Q: And the GI50 (SK-OV-3; [3])?
A: 1.68 µM

Q: What about the “TGI Conc. per Cell Lines” value (SK-OV-3) of the same compound?
A: 3.64 µM

Q: What about the CC50 (LOX IMVI; [2]) of the same compound?
A: 5.73 µM

Q: What about the GI50 (LOX IMVI; [3]) of the same compound?
A: 1.75 µM

Q: And the “TGI Conc. per Cell Lines” value (LOX IMVI)?
A: 3.17 µM

Q: What about the “TGI Conc. per Cell Lines” value (T-47D) of the same compound?
A: 4.75 µM

Q: What about the LC50 (concentration killing 50% of cells) (T-47D; Homo sapiens, T47D, 48 h) of the same compound?
A: > 100 µM

Q: What about the GI50 (T-47D; Homo sapiens, T47D, read-out: GI50 Conc. per Cell Lines) of the same compound?
A: 2.07 µM

Q: And the GI50 (PC-3; [3])?
A: 1.77 µM

Q: What about the “TGI Conc. per Cell Lines” value (PC-3) of the same compound?
A: 3.74 µM

Q: What about the “%inhibition” value (tubulin; conc 0.01 (unit not given; IC50 from this curve in µg/ml)) of the same compound?
A: 2.01%

Q: And the “%inhibition” value (tubulin; conc 0.1 (unit not given; IC50 from this curve in µg/ml))?
A: 8.94%

Q: And the “%inhibition” value (tubulin; conc 1 (unit not given; IC50 from this curve in µg/ml))?
A: 26.1%

Q: And the “%inhibition” value (tubulin; conc 10 (unit not given; IC50 from this curve in µg/ml))?
A: 49.9%

Q: And the “%inhibition” value (tubulin; conc 100 (unit not given; IC50 from this curve in µg/ml))?
A: 76.7%

Q: What about the IC50 (tubulin; read-out: Tub. IC50±SD (converted)) of the same compound?
A: 18.4 µM

Q: And the IC50 (tubulin; read-out: Tubulin Inhibitory Effect, IC50)?
A: 18.4 ± 0.7 µM

Q: What about the CC50 (UACC-257; 48 h, read-out: LC50 (the source's name)) of the same compound?
A: > 100 µM

Q: What about the GI50 (UACC-257; read-out: GI50 Conc. per Cell Lines) of the same compound?
A: 2.57 µM

Q: What about the CC50 (UACC-62; [2]) of the same compound?
A: 6.31 µM

Q: And the GI50 (UACC-62; [3])?
A: 1.69 µM

Q: And the “TGI Conc. per Cell Lines” value (UACC-62)?
A: 3.26 µM

Q: And the “TGI Conc. per Cell Lines” value (BT-549)?
A: 3.03 µM

Q: And the CC50 (BT-549; [2])?
A: 5.78 µM

Q: What about the GI50 (BT-549; [3]) of the same compound?
A: 1.59 µM

Q: What about the “TGI Conc. per Cell Lines” value (HT29) of the same compound?
A: 4.43 µM

Q: What about the GI50 (HT29; Homo sapiens, HT-29, read-out: GI50 Conc. per Cell Lines) of the same compound?
A: 1.99 µM

Q: And the LC50 (MCF7; Homo sapiens, 48 h)?
A: > 100 µM

Q: And the GI50 (MCF7; [3])?
A: 2.42 µM

Q: What about the “TGI Conc. per Cell Lines” value (MCF7) of the same compound?
A: 7.01 µM

Q: What about the LC50 (NCI/ADR-RES; Homo sapiens, 48 h) of the same compound?
A: 7.59 µM

Q: And the GI50 (NCI/ADR-RES; [3])?
A: 2 µM

Q: What about the “TGI Conc. per Cell Lines” value (NCI/ADR-RES) of the same compound?
A: 3.90 µM

Q: And the CC50 (UO-31; [2])?
A: 9.47 µM

Q: What about the GI50 (UO-31; [3]) of the same compound?
A: 1.82 µM

Q: And the “TGI Conc. per Cell Lines” value (UO-31)?
A: 4.15 µM

Q: What about the CC50 (SN12C; [2]) of the same compound?
A: 36.7 µM

Q: What about the GI50 (SN12C; [3]) of the same compound?
A: 2.33 µM

Q: And the “TGI Conc. per Cell Lines” value (SN12C)?
A: 6.80 µM

Q: What about the “TGI Conc. per Cell Lines” value (MDA/MB-231-ATCC) of the same compound?
A: 3.33 µM

Q: What about the LC50 (MDA/MB-231-ATCC; Homo sapiens, 48 h) of the same compound?
A: 6.27 µM

Q: And the GI50 (MDA/MB-231-ATCC; [3])?
A: 1.77 µM

Q: What about the GI50 ([1]; Homo sapiens, average sensitivity of all cell lines of the Non-small cell lung cancer subpanel, read-out: GI50 Subpanel MID b) of the same compound?
A: 4.44 µM

Q: What about the “GI50 Selectivity Ratio (MID a/MID b)” value ([1]; Non-small cell lung cancer subpanel) of the same compound?
A: 0.68

Q: What about the “TGI Conc. per Cell Lines” value (HCT-15) of the same compound?
A: 3.34 µM

Q: And the CC50 (HCT-15; [2])?
A: 6.37 µM

Q: What about the GI50 (HCT-15; [3]) of the same compound?
A: 1.75 µM

Q: And the CC50 (SNB-19; [2])?
A: 8.46 µM

Q: And the GI50 (SNB-19; [3])?
A: 1.87 µM

Q: And the “TGI Conc. per Cell Lines” value (SNB-19)?
A: 3.97 µM

Q: What about the “TGI Conc. per Cell Lines” value (786-0) of the same compound?
A: 31.40 µM

Q: And the LC50 (50% lethal concentration) (786-0; Homo sapiens, 48 h)?
A: 98.1 µM

Q: And the GI50 (786-0; [3])?
A: 10 µM

Q: What about the “TGI Conc. per Cell Lines” value (HCC-2998) of the same compound?
A: 3.93 µM

Q: What about the CC50 (HCC-2998; [2]) of the same compound?
A: 7.39 µM

Q: What about the GI50 (HCC-2998; [3]) of the same compound?
A: 2.09 µM

Q: What about the LC50 (MDA-MB-468; Homo sapiens, 48 h) of the same compound?
A: 5.64 µM

Q: What about the GI50 (MDA-MB-468; [3]) of the same compound?
A: 1.5 µM

Q: And the “TGI Conc. per Cell Lines” value (MDA-MB-468)?
A: 2.91 µM
